Assay results as given in PubChem BioAssay AID2060892 (Molecular Pharmacology Branch, DTP, NCI, 2025).

Tested on: HOP-62 complex spheroids with HUVEC/MSC, viability
Test: Anticancer human tumor HOP-62 cell line growth inhibition [RAS];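 further: spheroids exposed to agents for seven days before readout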;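 on viability, T/C: 100% = DMSO vehicle control viability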
Details: for IC50: curve of first compound; for viability, T/C: stronger effect = lower value
In short: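 Agents were tested in combination matrices in half-log decrements from a top concentration at or near clinical Cmax (10 microM if undetermined). Targets were multi-cell spheroids of tumour lines plus HUVEC and MSC stromal cells.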

Compound: CC1(C)CCC(Nc2ncc(C(F)(F)F)c(-c3c[nH]c4c(P(C)(C)=O)c(C#N)ccc34)n2)CN1 (stereo unspecified) + CCn1c(-c2cc(N3CCN(C)CC3)cnc2C(C)OC)c2c3cc(ccc31)-c1csc(n1)CC(NC(=O)C1CC1C)C(=O)N1CCCC(N1)C(=O)OCC(C)(C)C2
- IC50 (second compound 0.000949 µM): > 300 nM
- IC50 (second compound 0.003 µM): 274 nM
- IC50 (second compound 0.00949 µM): > 300 nM
- IC50 (second compound 0.03 µM): > 300 nM
- IC50 (second compound 0.0949 µM): > 300 nM
- IC50 (second compound 0.3 µM): < 0.949 nM
- viability, T/C (second compound 0.000949 µM, first compound 0.000949 µM): 106%
- viability, T/C (second compound 0.000949 µM, first compound 0.003 µM): 95.9%
- viability, T/C (second compound 0.000949 µM, first compound 0.00949 µM): 54.9%
- viability, T/C (second compound 0.000949 µM, first compound 0.03 µM): 71.5%
- viability, T/C (second compound 0.000949 µM, first compound 0.0949 µM): 76.7%
- viability, T/C (second compound 0.000949 µM, first compound 0.3 µM): 38.8%
- viability, T/C (second compound 0.003 µM, first compound 0.000949 µM): 83%
- viability, T/C (second compound 0.003 µM, first compound 0.003 µM): 73%
- viability, T/C (second compound 0.003 µM, first compound 0.00949 µM): 61.9%
- viability, T/C (second compound 0.003 µM, first compound 0.03 µM): 74%
- viability, T/C (second compound 0.003 µM, first compound 0.0949 µM): 79.7%
- viability, T/C (second compound 0.003 µM, first compound 0.3 µM): 48%
- viability, T/C (second compound 0.00949 µM, first compound 0.000949 µM): 68.3%
- viability, T/C (second compound 0.00949 µM, first compound 0.003 µM): 52.8%
- viability, T/C (second compound 0.00949 µM, first compound 0.00949 µM): 67.2%
- viability, T/C (second compound 0.00949 µM, first compound 0.03 µM): 68.7%
- viability, T/C (second compound 0.00949 µM, first compound 0.0949 µM): 67.8%
- viability, T/C (second compound 0.00949 µM, first compound 0.3 µM): 54.1%
- viability, T/C (second compound 0.03 µM, first compound 0.000949 µM): 50.9%
- viability, T/C (second compound 0.03 µM, first compound 0.003 µM): 56.4%
- viability, T/C (second compound 0.03 µM, first compound 0.00949 µM): 72.1%
- viability, T/C (second compound 0.03 µM, first compound 0.03 µM): 74.3%
- viability, T/C (second compound 0.03 µM, first compound 0.0949 µM): 51.6%
- viability, T/C (second compound 0.03 µM, first compound 0.3 µM): 66%
- viability, T/C (second compound 0.0949 µM, first compound 0.000949 µM): 49.5%
- viability, T/C (second compound 0.0949 µM, first compound 0.003 µM): 59%
- viability, T/C (second compound 0.0949 µM, first compound 0.00949 µM): 64.4%
- viability, T/C (second compound 0.0949 µM, first compound 0.03 µM): 66.1%
- viability, T/C (second compound 0.0949 µM, first compound 0.0949 µM): 51.4%
- viability, T/C (second compound 0.0949 µM, first compound 0.3 µM): 70.2%
- viability, T/C (second compound 0.3 µM, first compound 0.000949 µM): 43.8%
- viability, T/C (second compound 0.3 µM, first compound 0.003 µM): 59.2%
- viability, T/C (second compound 0.3 µM, first compound 0.00949 µM): 70.8%
- viability, T/C (second compound 0.3 µM, first compound 0.03 µM): 56.9%
- viability, T/C (second compound 0.3 µM, first compound 0.0949 µM): 66.1%
- viability, T/C (second compound 0.3 µM, first compound 0.3 µM): 70.7%

Compound: CC(Nc1ccc2c(c1)OCCn1cc(N3C(=O)OCC3C(F)F)nc1-2)C(N)=O (stereo unspecified) + C=CC(=O)N1CCN(c2nc(OCC3CCCN3C)nc3c(F)c(-c4nc(N)cc(C)c4C(F)(F)F)c(Cl)cc23)C(C)C1
- IC50 (second compound 0.00316 µM): 140 nM
- IC50 (second compound 0.01 µM): 63.4 nM
- IC50 (second compound 0.0316 µM): < 31.6 nM
- IC50 (second compound 0.1 µM): 34.6 nM
- IC50 (second compound 0.316 µM): < 31.6 nM
- IC50 (second compound 1 µM): < 31.6 nM
- viability, T/C (second compound 0.00316 µM, first compound 0.0316 µM): 57.6%
- viability, T/C (second compound 0.00316 µM, first compound 0.1 µM): 53.6%
- viability, T/C (second compound 0.00316 µM, first compound 0.316 µM): 44.2%
- viability, T/C (second compound 0.00316 µM, first compound 1 µM): 35.5%
- viability, T/C (second compound 0.00316 µM, first compound 3.16 µM): 30.9%
- viability, T/C (second compound 0.00316 µM, first compound 10 µM): 19.6%
- viability, T/C (second compound 0.01 µM, first compound 0.0316 µM): 56.5%
- viability, T/C (second compound 0.01 µM, first compound 0.1 µM): 44.6%
- viability, T/C (second compound 0.01 µM, first compound 0.316 µM): 37.8%
- viability, T/C (second compound 0.01 µM, first compound 1 µM): 32.7%
- viability, T/C (second compound 0.01 µM, first compound 3.16 µM): 27.7%
- viability, T/C (second compound 0.01 µM, first compound 10 µM): 18.9%
- viability, T/C (second compound 0.0316 µM, first compound 0.0316 µM): 47.5%
- viability, T/C (second compound 0.0316 µM, first compound 0.1 µM): 40.9%
- viability, T/C (second compound 0.0316 µM, first compound 0.316 µM): 36.1%
- viability, T/C (second compound 0.0316 µM, first compound 1 µM): 30.2%
- viability, T/C (second compound 0.0316 µM, first compound 3.16 µM): 24.5%
- viability, T/C (second compound 0.0316 µM, first compound 10 µM): 16.5%
- viability, T/C (second compound 0.1 µM, first compound 0.0316 µM): 52%
- viability, T/C (second compound 0.1 µM, first compound 0.1 µM): 42%
- viability, T/C (second compound 0.1 µM, first compound 0.316 µM): 39.2%
- viability, T/C (second compound 0.1 µM, first compound 1 µM): 32.5%
- viability, T/C (second compound 0.1 µM, first compound 3.16 µM): 24%
- viability, T/C (second compound 0.1 µM, first compound 10 µM): 15.7%
- viability, T/C (second compound 0.316 µM, first compound 0.0316 µM): 47.4%
- viability, T/C (second compound 0.316 µM, first compound 0.1 µM): 37.4%
- viability, T/C (second compound 0.316 µM, first compound 0.316 µM): 32.9%
- viability, T/C (second compound 0.316 µM, first compound 1 µM): 30.6%
- viability, T/C (second compound 0.316 µM, first compound 3.16 µM): 20.5%
- viability, T/C (second compound 0.316 µM, first compound 10 µM): 16.8%
- viability, T/C (second compound 1 µM, first compound 0.0316 µM): 43.6%
- viability, T/C (second compound 1 µM, first compound 0.1 µM): 40.8%
- viability, T/C (second compound 1 µM, first compound 0.316 µM): 32.2%
- viability, T/C (second compound 1 µM, first compound 1 µM): 29.6%
- viability, T/C (second compound 1 µM, first compound 3.16 µM): 24.3%
- viability, T/C (second compound 1 µM, first compound 10 µM): 13%

Compound: C[C@@H](NC(=O)c1ncnc(N)c1Cl)c1ncc(C(=O)Nc2cc(C(F)(F)F)c(Cl)cn2)s1 + CCn1c(-c2cc(N3CCN(C)CC3)cnc2C(C)OC)c2c3cc(ccc31)-c1csc(n1)CC(NC(=O)C1CC1C)C(=O)N1CCCC(N1)C(=O)OCC(C)(C)C2
- IC50 (second compound 0.000949 µM): > 10000 nM
- IC50 (second compound 0.003 µM): > 10000 nM
- IC50 (second compound 0.00949 µM): > 10000 nM
- IC50 (second compound 0.03 µM): > 10000 nM
- IC50 (second compound 0.0949 µM): 342 nM
- IC50 (second compound 0.3 µM): < 31.6 nM
- viability, T/C (second compound 0.000949 µM, first compound 0.0316 µM): 111%
- viability, T/C (second compound 0.000949 µM, first compound 0.1 µM): 119%
- viability, T/C (second compound 0.000949 µM, first compound 0.316 µM): 93.4%
- viability, T/C (second compound 0.000949 µM, first compound 1 µM): 115%
- viability, T/C (second compound 0.000949 µM, first compound 3.16 µM): 114%
- viability, T/C (second compound 0.000949 µM, first compound 10 µM): 74.6%
- viability, T/C (second compound 0.003 µM, first compound 0.0316 µM): 107%
- viability, T/C (second compound 0.003 µM, first compound 0.1 µM): 101%
- viability, T/C (second compound 0.003 µM, first compound 0.316 µM): 96.7%
- viability, T/C (second compound 0.003 µM, first compound 1 µM): 104%
- viability, T/C (second compound 0.003 µM, first compound 3.16 µM): 94.7%
- viability, T/C (second compound 0.003 µM, first compound 10 µM): 60.6%
- viability, T/C (second compound 0.00949 µM, first compound 0.0316 µM): 80.9%
- viability, T/C (second compound 0.00949 µM, first compound 0.1 µM): 99.5%
- viability, T/C (second compound 0.00949 µM, first compound 0.316 µM): 76.4%
- viability, T/C (second compound 0.00949 µM, first compound 1 µM): 83.7%
- viability, T/C (second compound 0.00949 µM, first compound 3.16 µM): 75.9%
- viability, T/C (second compound 0.00949 µM, first compound 10 µM): 51.3%
- viability, T/C (second compound 0.03 µM, first compound 0.0316 µM): 65.9%
- viability, T/C (second compound 0.03 µM, first compound 0.1 µM): 56.7%
- viability, T/C (second compound 0.03 µM, first compound 0.316 µM): 62.1%
- viability, T/C (second compound 0.03 µM, first compound 1 µM): 66.4%
- viability, T/C (second compound 0.03 µM, first compound 3.16 µM): 47.8%
- viability, T/C (second compound 0.03 µM, first compound 10 µM): 57%
- viability, T/C (second compound 0.0949 µM, first compound 0.0316 µM): 46.9%
- viability, T/C (second compound 0.0949 µM, first compound 0.1 µM): 56.4%
- viability, T/C (second compound 0.0949 µM, first compound 0.316 µM): 48.2%
- viability, T/C (second compound 0.0949 µM, first compound 1 µM): 54.4%
- viability, T/C (second compound 0.0949 µM, first compound 3.16 µM): 38.6%
- viability, T/C (second compound 0.0949 µM, first compound 10 µM): 55%
- viability, T/C (second compound 0.3 µM, first compound 0.0316 µM): 47.7%
- viability, T/C (second compound 0.3 µM, first compound 0.1 µM): 49.6%
- viability, T/C (second compound 0.3 µM, first compound 0.316 µM): 43.9%
- viability, T/C (second compound 0.3 µM, first compound 1 µM): 41.3%
- viability, T/C (second compound 0.3 µM, first compound 3.16 µM): 45.4%
- viability, T/C (second compound 0.3 µM, first compound 10 µM): 47.3%
